Here are results for 18 compounds from patent publication US8299093B2, “Small molecule inhibitors of retroviral assembly and maturation” (New York Blood Center, Inc., priority 2008, dated 2012).

Read-outs that look alike come from different tables or passages of the source.

What all share (type): cell-based
The test system of one series is HIV-1 IIIB. The experiment in a line: Antiviral activity (p24) against HIV-1 IIIB in MT-2. As to conditions: Human immunodeficiency virus 1, subtype B, MT-2, X4, laboratory strain. As to the method:
(§1) AZT was used as a positive control in the infectivity assays. In brief, 1×10^4 MT-2 cells (lymphocytes) were infected with HIV-1 at 100 TCID50 (50% tissue culture infective dose, 0.01 MOI [multiplicity of infection]) in 200 μL RPMI 1640 medium containing 10% FBS in the presence or absence of small molecules at graded concentrations overnight. The culture supernatants were then removed and fresh media containing freshly prepared test compounds were added. On the fourth day post-infection, 100 μL of culture supernatants were collected from each well, mixed with equal volume of 5% TRITON X-100® and tested for p24 antigen by ELISA®. The IC50 values were calculated by the GraphPad Prism software (GraphPad Software®, Inc.) and the values were classified as IC50<10 μM and IC50>10 μM.
(§2) The molecules in Tables 3 include the calculated IC50 values and use “A1” to denote IC50<10 μM and “B1” to denote IC50>10 μM and “C1” to denote CC50<50 μM and “D1” to denote […].

A further series has as its system HIV-1 BCF02. In words: Antiviral activity (p24) against primary isolate BCF02 in PBMC. As to conditions: Human immunodeficiency virus 1, BCF02, Group (O), R5, primary isolate. As to the method:
(§3) Peripheral blood mononuclear cells (PBMCs) were isolated from the blood of healthy donors by standard density gradient centrifugation using Histopaque-1077 (Sigma). The cells were cultured at 37° C. for 2 hours. Nonadherent cells were collected and resuspended at 5×10^6 cells/ml RPMI-1640 medium containing 10% FBS, 5 μg/ml PHA, and 100 U/ml IL-2 (Sigma), followed by incubation at 37° C. for 3 days. The PHA-stimulated cells (5×10^4 cells/well) were infected with primary HIV-1 isolates at 500 TCID50 (0.01 MOI) in the absence or presence of small molecule inhibitor at graded concentrations. Culture media were changed every 3 days and replaced with fresh media containing freshly prepared inhibitor. The supernatants were collected 7 days post-infection and tested for p24 antigen by ELISA. The inhibition of p24 production in PBMC was measured over a range of concentrations and the concentration required to inhibit 50% (IC50) of the p24 production was calculated by the GraphPad Prism software.
as §2

Series [1] is described as follows: XTT cytotoxicity assay in MT-2 cells. As to conditions: human; for CC50 at 4 days: MT-2 cells; for CC50: cell type not given. How it is done:
(§4) Briefly, for MT-2 cells, 100 μL of small molecule at graded concentrations was added to an equal volume of cells (5×10^4 cells/ml) in 96-well plates followed by incubation at 37° C. for 4 days, which ran parallel to the neutralization assay in MT-2 (except medium was added instead of virus). In the case of PBMC, 2.5×10^5 cells/mL were used and the cytotoxicity was measured after 7 days. After addition of XTT (PolySciences, Inc.), the soluble intracellular formazan was quantitated calorimetrically at 450 nm 4 hours later with a reference at 620 nm. The CC50 values were calculated.

The subject of a further series is HIV-1. In words: Inhibition of HIV-1 infectivity (p24 ELISA) in MT-2 cells, laboratory-adapted HIV-1 strains. The conditions noted are these: for IC50: Human immunodeficiency virus 1, MT2, 96 h, MT-2 cells, p24 ELISA day 4; for Activity against a broad range of HIV-1 laboratory-adapted and primary isolates: including one RT-inhibitor-resistant and one protease-inhibitor-resistant isolate (summary of Table 3). How it is done:
as §1, with “ELISA®.” for “ELISA®. The IC50 values were calculated by the GraphPad Prism software (GraphPad Software®, Inc.) and the values were classified as IC50<10 μM and IC50>10 μM.”

A further series has as its system HIV-1 92US657. In words: Antiviral activity (p24) against primary isolate 92US657 in PBMC. The conditions noted are these: Human immunodeficiency virus 1, 92US657, subtype B, R5, primary isolate. As to the method:
as §3, §2

Another series has as its system HIV-1 RF. The experiment in a line: Antiviral activity (p24) against HIV-1 RF in MT-2. As to conditions: Human immunodeficiency virus 1, subtype B, MT-2, X4, laboratory strain. How it is done:
as §1, §2

The test system of the next series is HIV-1 MN. The experiment in a line: Antiviral activity (p24) against HIV-1 MN in MT-2. The conditions noted are these: Human immunodeficiency virus 1, subtype B, MT-2, X4, laboratory strain. As to the method:
as §1, §2

For a further series, the system named is HIV-1 AZT-R. In words: Antiviral activity (p24) against RT-resistant isolate AZT-R in MT-2. The conditions noted are these: Human immunodeficiency virus 1. As to the method:
as §1, §2

In the next series the test system is HIV-1 RU570. In words: Antiviral activity (p24) against primary isolate RU570 in PBMC. As to conditions: Human immunodeficiency virus 1, RU570, subtype G, R5, primary isolate. How it is done:
as §3, §2

The next series concerns HIV-1 93IN101. The experiment in a line: Antiviral activity (p24) against primary isolate 93IN101 in PBMC. The conditions noted are these: Human immunodeficiency virus 1, 93IN101, subtype C, R5, primary isolate. How it is done:
as §3, §2

A further series concerns HIV-1 BaL. In words: Antiviral activity (p24) against HIV-1 BaL in PBMC. The conditions noted are these: Human immunodeficiency virus 1, subtype B, R5, laboratory strain. As to the method:
as §1, §3, §2

The test system of a further series is HIV-1 SF2. In words: Antiviral activity (p24) against HIV-1 SF2 in MT-2. The conditions noted are these: Human immunodeficiency virus 1; SF2, subtype B, MT-2, R5X4, laboratory strain. How it is done: as §1, §2
A short description of series [2]: XTT cytotoxicity assay in PBMC. The conditions noted are these: human. As to the method: as §4, with “Cytotoxicity of small molecules in cultures with MT-2 cells and PBMC was measured by the tetrazolium hydroxide XTT (sodium 3′-(1-(phenylamino)-carbonyl)-3,4-tetrazolium-bis(4-methoxy-6-nitro) benzenesulfonic acid hydrate) cytotoxicity assay, as previously described (Jiang et al., 2004). Briefly,” for “Briefly,”
On the technique in general: Formazan colour is commonly taken as a measure of viable cells.

The subject of a further series is HIV-1RF/L-323-12-3. The experiment in a line: Antiviral activity (p24) against protease resistant isolate HIV-1RF/L-323-12-3 in MT-2. As to conditions: Human immunodeficiency virus 1. As to the method:
as §1, §2

In the next series the test system is HIV-1 93Br020. The experiment in a line: Antiviral activity (p24) against primary isolate 93Br020 in PBMC. As to conditions: Human immunodeficiency virus 1, 93Br020, subtype F, R5X4, primary isolate. How it is done:
as §3, §2

The mark [3] stands for this setting: Table 2, formula II, read-out: CC50.
Where [4] appears, read: Table 1, formula I, read-out: CC50 (concentration that causes 50% cytotoxicity).
The mark [5] stands for this setting: read-out: IC50 (concentration that provides 50% inhibition of HIV-1 p24), Table 1, formula I.

As to `Cc1cc(=O)n2c3ccccc3n(CC(O)CN3CCN(C(c4ccccc4)c4ccccc4)CC3)c2c1C#N` (stereo not shown) [NYAD-S17], the IC50 is below 10 µM in the series on HIV-1 IIIB; below 10 µM with HIV-1 BCF02; below 10 µM in the series with HIV-1 (Table 2, formula II); below 10 µM in the series with HIV-1 92US657; below 10 µM in the series with HIV-1 RF; below 10 µM in the series with HIV-1 MN. Also, the IC50 in the series with HIV-1 AZT-R, in the series on HIV-1 RU570, in the series with HIV-1 93IN101, in the series on HIV-1 BaL and in the series on HIV-1 SF2 was below 10 µM in each case. The CC50 at 4 days in series [1] was below 50 µM. Besides, the CC50 in series [1] (setting [3]) was above 10 µM. Further, the “Activity against a broad range of HIV-1 laboratory-adapted and primary isolates” value with HIV-1 is listed as “consistently potent activity”. In addition, the CC50 at 7 days in series [2] was below 50 µM.

As for `Cc1cc(=O)n2c3ccccc3n(CC(O)CNc3ccc(F)cc3)c2c1C#N` (stereo not shown) [NYAD-S8], the IC50 in the series with HIV-1 IIIB was above 10 µM; in the series with HIV-1 BCF02, above 10 µM; in the series on HIV-1 (Table 2, formula II), above 10 µM; in the series on HIV-1 92US657, below 10 µM; in the series with HIV-1 RF it was below 10 µM; with HIV-1RF/L-323-12-3, below 10 µM. In addition, the IC50 in the series on HIV-1 MN, in the series with HIV-1 93Br020, in the series on HIV-1 AZT-R, in the series on HIV-1 RU570, in the series with HIV-1 93IN101 and with HIV-1 BaL was below 10 µM each time. Also, in the series on HIV-1 SF2, the IC50 was below 10 µM. Further, in series [1], the CC50 at 4 days was above 50 µM. Moreover, the CC50 in series [1] (setting [3]) was above 10 µM. Further, the “Activity against a broad range of HIV-1 laboratory-adapted and primary isolates” value in the series with HIV-1 was “consistently potent activity”. Besides, the CC50 at 7 days in series [2] was above 50 µM.

Turning to `Cc1cc(=O)n2c3ccccc3n(CC(O)CN3CCN(CCO)CC3)c2c1C#N` (stereo not shown) [NYAD-S18], the CC50 in series [1] (setting [3]) is above 10 µM. Besides, the IC50 in the series with HIV-1 (Table 2, formula II) was above 10 µM.

`Cc1ccc2[nH]c(=O)c(CN(Cc3cccnc3)C(=O)c3ccco3)cc2c1` [NYAD-S46]: the CC50 in series [1] (setting [4]) was above 10 µM. The IC50 in the series on HIV-1 (setting [5]) was above 10 µM.

Regarding `CCOc1ccc2[nH]c(=O)c(CN(Cc3ccco3)C(=O)c3cccc(F)c3)cc2c1` [NYAD-S97], the CC50 in [1] (setting [4]) is below 10 µM. The IC50 with HIV-1 (setting [5]) was above 10 µM.

As to `CCC1CCCCN1CC(O)Cn1c2ccccc2n2c(=O)cc(C)c(C#N)c12` (stereo not shown) [NYAD-S54], the CC50 in [1] (setting [3]) was above 10 µM. For the same compound, the IC50 with HIV-1 (Table 2, formula II) is above 10 µM.

As to `CCc1ccc(NCC(O)Cn2c3ccccc3n3c(=O)cc(C)c(C#N)c23)cc1` (stereo not shown) [NYAD-S60], the CC50 in series [1] (setting [3]) was below 10 µM. The IC50 in the series with HIV-1 (Table 2, formula II) was above 10 µM.

On to `Cc1cc(C)c2cc(CN(Cc3ccco3)C(=O)c3ccccc3)c(=O)[nH]c2c1` [NYAD-S111], for which, in [1] (setting [4]), the CC50 was above 10 µM. For the same compound, the IC50 in the series with HIV-1 (setting [5]) was above 10 µM.

Turning to `CCc1ccc2[nH]c(=O)c(CN(Cc3cccs3)C(=O)c3ccco3)cc2c1` [NYAD-S102], in series [1] (setting [4]), the CC50 was above 10 µM. For the same compound, the IC50 with HIV-1 (setting [5]) was above 10 µM.

Take `COc1ccc2[nH]c(=O)c(CN(Cc3cccnc3)C(=S)Nc3ccc(F)cc3)cc2c1` [NYAD-S5]: in [1] (setting [4]), the CC50 is above 10 µM. In the series on HIV-1 (setting [5]), the IC50 was above 10 µM.

For `Cc1cccc2cc(CN(Cc3ccco3)C(=O)c3ccccc3F)c(=O)[nH]c12` [NYAD-S32], the CC50 in [1] (setting [4]) was above 10 µM. For the same compound, the IC50 in the series on HIV-1 (setting [5]) is above 10 µM.

On to `Cc1ccc2cc(CN(Cc3ccco3)C(=O)c3ccccc3)c(=O)[nH]c2c1` [NYAD-S27], for which, in series [1] (setting [4]), the CC50 is above 10 µM. Moreover, in the series with HIV-1 (setting [5]), the IC50 is above 10 µM.

With `CCOc1ccc2[nH]c(=O)c(CN(Cc3ccco3)C(=O)c3ccco3)cc2c1` [NYAD-S106], the CC50 in [1] (setting [4]) was above 10 µM. In the series with HIV-1 (setting [5]), the IC50 was above 10 µM.

Consider `Cc1ccc(C)c2[nH]c(=O)c(CN(Cc3ccco3)C(=O)c3ccc(Br)cc3)cc12` [NYAD-S85], for which, in series [1] (setting [4]), the CC50 is above 10 µM. Besides, the IC50 in the series with HIV-1 (setting [5]) is above 10 µM.

For the compound `Cc1cc(=O)n2c3ccccc3n(CC(O)CN3CCCC3)c2c1C#N` (stereo not shown) [NYAD-S9], the CC50 in series [1] (setting [3]) is above 10 µM. Further, the IC50 with HIV-1 (Table 2, formula II) is above 10 µM.

For the compound `Cc1cc(=O)n2c3ccccc3n(CC(O)CNc3ccccc3)c2c1C#N` (stereo not shown) [NYAD-S10], the CC50 in series [1] (setting [3]) was above 10 µM. In addition, the IC50 with HIV-1 (Table 2, formula II) was above 10 µM.

`COc1ccc2cc(CN(Cc3ccc4c(c3)OCO4)C(=S)Nc3ccc(C)cc3)c(=O)[nH]c2c1` [NYAD-S2]: the CC50 in [1] (setting [4]) was above 10 µM. For the same compound, the IC50 in the series on HIV-1 (setting [5]) was above 10 µM.

Take `Cc1cc(C)c2cc(CN(Cc3ccco3)C(=O)C3CCCCC3)c(=O)[nH]c2c1` [NYAD-S104]: the CC50 in series [1] (setting [4]) was above 10 µM. The IC50 in the series with HIV-1 (setting [5]) is above 10 µM.
